Patent US20070032448A1, “Sugar modified nucleosides as viral replication inhibitors” (priority 2002, published 2007)
Like-named read-outs stand apart in the source and are kept apart here.

Tests used:
[1] = test system: HCV replicon RNA in replicon cells (Huh-7); assay: HCV replicon assay; type: cell-based, Hepatitis C virus
Method: The replicon cells (Huh-7) contain replicating HCV replicon RNA, which was modified in the structural region (replacing the structural region with a neomycin resistance marker). Survival of the replicon cells under G418 selection relies on the replication of HCV RNA and subsequently expression of neomycin phosphoryltransferase. The ability of modified nucleoside libraries and compounds to suppress HCV RNA replication was determined using the Quantigene Assay Kit from Bayer. The assay measures the reduction of HCV RNA molecules in the treated cells. Replicon cells were incubated at 37° C. for 3 days in the presence of nucleoside libraries and compounds before harvested for detection. An HCV subgenomic replicon cell line was provided by Dr. Bartenschlager. The assay protocol was modified based on literature procedure (V. Lohmann, F. Korner, J. O. Koch, U. Herian, L. Theilmann, R. Bartenschlager, Science, 1999, 285, 110-113).

[2] = Pharmacokinetics, intravenous and oral dosing; type: in vivo
mice = assay: Toxicity in mice; type: in vivo; details: 160 mg/kg dosing
[3] = Hepatitis C virus, Huh-7, 72 h, read-out: HCV Replicon EC50
[4] = 2′-beta-6-substituted adenosine derivatives, Huh-7 replicon cells, 3 days, read-out: HCV Replicon EC50
[5] = Hepatitis C virus, 72 h, 2′-beta-methyl cytidine and uridine derivatives, Huh-7 replicon cells, 3 days, read-out: HCV REPLICON EC50

SMILES | EC50 [1, 3] [µM] | EC50 [1, 4] [µM] | also measured
CC[C@@]1(O)[C@H](O)[C@@H](CO)O[C@H]1n1cnc2c(N)ncnc21 [Compound P6, 2′-C-Ethyladenosine] | > 100 |  | 
CC[C@@]1(O)[C@H](O)[C@@H](CO)O[C@H]1n1cnc2c(NC)ncnc21 [Compound P7, N^6-Methyl-2′-C-ethyladenosine] | > 100 |  | 
CC[C@@]1(O)[C@H](O)[C@@H](CO)O[C@H]1n1cnc2c(N(C)C)ncnc21 [Compound P8, N^6-Dimethyl-2′-C-ethyladenosine] |  | > 100 | 
CC[C@@]1(O)[C@H](O)[C@@H](CO)O[C@H]1n1cnc2c(SC)ncnc21 [Compound P9, 9-(2-C-Ethyl-β-D-ribofuranosyl)-6-methylmercaptopurine] | > 100 |  | 
CC[C@@]1(O)[C@H](O)[C@@H](CO)O[C@H]1n1cnc2c(OC)ncnc21 [Compound P10, 9-(2-C-ethyl-β-D-ribofuranosyl)-6-methoxy-purine] | > 100 |  | 
C=C[C@@]1(O)[C@H](O)[C@@H](CO)O[C@H]1n1cnc2c(N)ncnc21 [Compound P11, 2′-C-Vinyladenosine] | > 100 |  | 
C=C[C@@]1(O)[C@H](O)[C@@H](CO)O[C@H]1n1cnc2c(NC)ncnc21 [Compound P12, N^6-Methyl-2′-C-vinyladenosine] | > 100 |  | 
C=C[C@@]1(O)[C@H](O)[C@@H](CO)O[C@H]1n1cnc2c(N(C)C)ncnc21 [Compound P13, N^6-Dimethyl-2′-C-vinyladenosine] |  | > 100 | 
C=C[C@@]1(O)[C@H](O)[C@@H](CO)O[C@H]1n1cnc2c(SC)ncnc21 [Compound P14, 9-(2-C-Vinyl-β-D-ribofuranosyl)-6-methylmercaptopurine] | > 100 |  | 
C=C[C@@]1(O)[C@H](O)[C@@H](CO)O[C@H]1n1cnc2c(OC)ncnc21 [Compound P15, 9-(2-C-vinyl-β-D-ribofuranosyl)-6-methoxy-purine] | > 100 |  | 
Nc1ncnc2c1ncn2[C@@H]1O[C@H](CO)[C@@H](O)[C@]1(O)C1CC1 [Compound P16, 2′-C-Cyclopropyladenosine] | > 100 |  | 
CNc1ncnc2c1ncn2[C@@H]1O[C@H](CO)[C@@H](O)[C@]1(O)C1CC1 [Compound P17, N^6-Methyl-2′-C-cyclopropylyladenosine] |  | > 100 | 
CN(C)c1ncnc2c1ncn2[C@@H]1O[C@H](CO)[C@@H](O)[C@]1(O)C1CC1 [Compound P18, N^6-Dimethyl-2′-C-cyclopropylyladenosine] |  | > 100 | 
CSc1ncnc2c1ncn2[C@@H]1O[C@H](CO)[C@@H](O)[C@]1(O)C1CC1 [Compound P19, 9-(2-C-Cyclopropyl-β-D-ribofuranosyl)-6-methylmercaptopurine] | > 100 |  | 
COc1ncnc2c1ncn2[C@@H]1O[C@H](CO)[C@@H](O)[C@]1(O)C1CC1 [Compound P20, 9-(2-C-cyclopropyl-β-D-ribofuranosyl)-6-methoxypurine] | > 100 |  | 
C[C@@]1(O)[C@H](O)[C@@H](CO)O[C@H]1n1cnc2c(N)ncnc21 [Compound P21] |  | < 10 | 
CNc1ncnc2c1ncn2[C@@H]1O[C@H](CO)[C@@H](O)[C@@]1(C)O [Compound P22, N^6-Methyl-9H-(2′-C-methyl-β-D-ribofuranosyl)adenine] |  | < 10 | 
CN(C)c1ncnc2c1ncn2[C@@H]1O[C@H](CO)[C@@H](O)[C@@]1(C)O [Compound P23, N^6-Dimethyl-9H-(2′-C-methyl-β-D-ribofuranosyl)adenine] |  | < 10 | 
CSc1ncnc2c1ncn2[C@@H]1O[C@H](CO)[C@@H](O)[C@@]1(C)O [Compound P24, 6-Thiomethyl-9H-(2′-C-methyl-β-D-ribofuranosyl)adenine] |  | < 10 | increase of bioavailability compared to Ribavirin ([2]; in vivo): approximately 4 times; AUC ([2]; intravenous dosing): 1950.6 ng·h/mL; C0 ([2]; intravenous dosing): 3452.4 ng/mL; t1/2b ([2]; intravenous dosing): 25.8 min; AUC ([2]; oral dosing): 1953.5 ng·h/mL; Cmax ([2]; oral dosing): 1085.0 ng/mL; Tmax ([2]; oral dosing): 45 min; t1/2β ([2]; oral dosing): 71.4 min; bioavailability ([2]; oral vs intravenous dosing): 100%; body weight, food consumption, and behavior (mice): normal; tissue and organ abnormalities (mice): No tissue and organ abnormalities were observed; toxicity (mice): did not show toxicity
COc1ncnc2c1ncn2[C@@H]1O[C@H](CO)[C@@H](O)[C@@]1(C)O [Compound P25] |  | < 10 | 
C[C@@]1(O)[C@H](O)[C@@H](CO)O[C@H]1n1ccc(N)nc1=O [Compound P37, 2′-β-C-Methylcytidine] |  |  | EC50 [1, 5]: < 10 µM
Cc1cn([C@@H]2O[C@H](CO)[C@@H](O)[C@@]2(C)O)c(=O)nc1N [Compound P38] |  |  | EC50 [1, 5]: > 100 µM
C[C@@]1(O)[C@H](O)[C@@H](CO)O[C@H]1n1ccc(O)nc1=O [Compound P39] |  |  | EC50 [1, 5]: > 100 µM
CNc1ccn([C@@H]2O[C@H](CO)[C@@H](O)[C@@]2(C)O)c(=O)n1 [Compound P40] |  |  | EC50 [1, 5]: > 100 µM
CN(C)c1ccn([C@@H]2O[C@H](CO)[C@@H](O)[C@@]2(C)O)c(=O)n1 [Compound P41] |  |  | EC50 [1, 5]: > 100 µM
Cc1cn([C@@H]2O[C@H](CO)[C@@H](O)[C@@]2(C)O)c(=O)nc1O [Compound P42] |  |  | EC50 [1, 5]: > 100 µM
CNc1nc(=O)n([C@@H]2O[C@H](CO)[C@@H](O)[C@@]2(C)O)cc1C [Compound P43] |  |  | EC50 [1, 5]: > 100 µM
Cc1cn([C@@H]2O[C@H](CO)[C@@H](O)[C@@]2(C)O)c(=O)nc1N(C)C [Compound P44] |  |  | EC50 [1, 5]: > 100 µM
